Tests used:
[1] = change with time of residual concentration of specific component A in test liquid (HPLC); assay type: physicochemical; settings: 50 mM phosphoric acid buffer solution pH6.8, 37° C., initial 0.1 mg/mL
Method: The specific component A is an unstable pharmaceutical in an elution test under neutral condition and is sodium rabepranazole. The test liquid used to the elution test is a 50 mM phosphoric acid buffer solution (pH6.8, 37° C.) in order to neutralize the elution condition for the specific component A.

[2] = elution test of the preparation by absorbance measurement method; assay type: physicochemical; settings: preparation C containing impurity component B, six specimens
From the text: The following describes a method for determining the specific component A alone while eliminating the influence of the impurity component B that hinders determination from the test liquid into which the specific component A and the impurity component B are eluted from the preparation C
The wavelengths to be set are 234 nm (λ1) and 287 nm (λ2) as isosbestic point wavelengths in a system including the specific component A and its decomposed matter in the preparation C. Assuming that the absorbances of the specific component A as A234nm(t) and A287nm(t) and the absorbances of the impurity component B as B234nm(t) and B287nm(t), the absorbances of the synthesis spectrum C234nm(t) and C287nm(t) will be represented as follows. C234nm(t)=A234nm(t)+B234nm(t) (3) C287nm(t)=A287nm(t)+B287nm(t) (4) Considering the spectrum of the impurity component B, the ratio of absorbance of the wavelengths of 234 nm and 287 nm is constant and independent of time (or concentration). This obtains the expression (5). B234nm(t)/B287nm(t)=k (5)
k and k′ are constants. From the absorbance measurement values at two isosbestic point wavelengths of the elution test liquid, the concentration of the specific component A alone is obtained by solving the simultaneous equation of the expression (7) and (8). […]

- time for residual concentration to decrease to half the initial concentration [1]: ≤ 40 min
- residual concentration of the specific component A ([1]; within 40 minutes): 0.05 mg/mL
- elution ratio ([2]; double-wavelength absorbance measurement method (234 nm and 287 nm)): around 100%
- elution ratio ([2]; single-wavelength absorbance measurement method (234 nm)): 140%
SMILES: COCCCOc1ccnc(C[S+]([O-])c2nc3ccccc3[n-]2)c1C.[Na+] (stereo not shown) [specific component A, sodium rabepranazole]

From patent publication US20060213838A1, “Elution test method and apparatus” (SHIMADZU CORPORATION, priority 2005, published 2006)
